{
  "source": "patent US20120165412A1",
  "about": "“Use of Resveratrol or Another Hydroxylated Stilbene For Preserving Cognitive Functioning” (N.V. Nutricia, priority 2009, published 2012)",
  "key": {"[1]": {"test": "Survival, food intake, body weight and general health under chronic dietary supplementation", "format": "in vivo", "description": "(§1) The experiment was performed with male C57BI/6 mice (Harlan, Horst, The Netherlands). Animals were individually housed under a 12 hours light/12 hours dark cycle with lights on at 8:00. Food and drinking water were provided ad libitum, except for the period of behavioural testing as described below. The experiment was started with 60 mice, half of which served as control (CON) and half of which received resveratrol in their food from the age of 1 year onwards (RES). Between the ages of 18 and 20 month, spatial learning performance of the animals was studied in a Y-maze test. At the age of 24 month, brains were collected and processed for immunocytochemistry to asses cholinergic parameters and electron microscopy for several cerebrovascular analyses. The procedures concerning animal care and treatment were in accordance with the regulations of the ethical committee for the use of experimental animals of the University of Groningen.\nTo rule out differences in food intake between animals on a control diet and resveratrol-supplemented diet, food intake and body weight were monitored every two weeks. To establish whether resveratrol provided in the food enters the circulation, a pilot experiment was performed in which blood was collected from mice by decapitation after 1 day and 30 days of supplementation. Plasma concentrations of resveratrol were measured. After 1 day of supplementation, resveratrol levels in the plasma were 88.5 μg/l at the end of the dark phase or active phase, when mice consume most of their food, and 41 μg/l at the end of the light phase or resting phase (n=3 each). After 1 month of supplementation, the levels were 102.7 and 30.7 μg/l at the end of active phase and rest phase, respectively (n=3 each). These measurements confirm that resveratrol ingested via the food indeed entered the circulation, and the levels appeared to fluctuate over the day in a fashion that paralleled food intake. Supplementation of resveratrol via food thus seemed an appropriate and simple method for further studies.\nAnimals received resveratrol in their food from 1 year of age onwards. […]"}, "[2]": {"system": "aged mice", "test": "Open field test (general explorative activity)", "format": "in vivo, male C57BI/6 mice", "conditions": "chronic supplementation", "description": "as §1, with “The procedures concerning animal care and treatment were in accordance with the regulations of the ethical committee for the use of experimental animals of the University of Groningen.” left out\nTo examine general explorative activity, mice were subjected to an open-field test for 5 minutes. […] Position and locomotion of the mice was recorded and analyzed with a computerized video tracking system (Ethovision, Noldus Information Technology, Wageningen, The Netherlands). The number of visits and time spend in each of the two zones was determined. […]\n(§2) Behavioural performance was statistically analyzed with a one way ANOVA paradigm for repeated measures. Immunocytochemical data and EM data were statistically analyzed with an independent samples T-test (2-tailed). Data are expressed as averages ±S.E.M. P<0.05 was considered as significant."}, "[3]": {"system": "aged mice", "test": "Y-maze spatial learning test", "format": "in vivo, male C57BI/6 mice", "description": "as §1\nTo examine cognitive performance, the mice were subjected to a Y-maze test in which they had to learn the location of a food reward in one of two accessible choice arms. […] The home cages of the mice were equipped with a small sliding door that connected to the starting arm. One of the two test arms was baited with a food reward consisting of small crumbs of the regular food. Food crumbs were also placed below perforations at the end of the two test arms to prevent animals from discriminating between baited and non-baited arms by olfactory cues. […]\nThe Y-maze test took place during the first half of the light phase between 10:00 and 14:00 in a room adjacent to the home cage room. […] A visit to the baited arm was recorded as a correct trial. […]\nas §2"}, "[4]": {"system": "cholinergic system (nucleus basalis, hippocampus)", "test": "AChE histochemistry of cholinergic cells and fibres", "format": "in vivo, male C57BI/6 mice", "conditions": "age 24 months, RES versus CON", "description": "The experiment was performed with male C57BI/6 mice (Harlan, Horst, The Netherlands). Animals were individually housed under a 12 hours light/12 hours dark cycle with lights on at 8:00. Food and drinking water were provided ad libitum, except for the period of behavioural testing as described below. The experiment was started with 60 mice, half of which served as control (CON) and half of which received resveratrol in their food from the age of 1 year onwards (RES). Between the ages of 18 and 20 month, spatial learning performance of the animals was studied in a Y-maze test. […]\nFor histology, brain tissue was cryoprotected in 30% sucrose in 0.1 M phosphate buffer for 48 h after which 20 μm sections were cut with a cryostat (Leica CM3050). […] Cells positive for AChE were quantified in sections containing nucleus basalis (around bregma −0.7) and AChE fibre density measurements were performed by a computerized image analysis system Quantimet (Leica) in the dorsal hippocampus.\nas §2"}, "[5]": {"system": "hippocampal microvessels", "test": "Electron microscopy of the cerebrovascular system", "format": "in vivo, male C57BI/6 mice", "conditions": "age 24 months", "description": "as §1\nAt the age of 24 months animals were sacrificed for histochemical and electronmicroscopical analysis. Mice were anaesthetized by a high dose of pentobarbital sodium salt (Nembutal, 60 mg/kg bodyweight) and transcardially perfused with heparinised saline followed by 4% phosphate buffered paraformaldehyde. After perfusions, brains were removed from the skull and kept in 0.01 M PBS overnight. […]\nAfter perfusion, 18 brains were prepared for electron microscopy using standard methods. […] The samples were then coverslipped with DPX and analyzed under a light microscope. […] Finally, the samples were analyzed and photographs were taken with a Philips TM10 transmission electron microscope.\nFor quantitative analysis, approximately 4000 μm^2 tissue surface was scanned systematically in each region, and 61±10 microvascular cross sections were examined in each sample. Vascular density was calculated for a standard surface area with the help of the sample grid. In addition to microvessel density, the occurrence of the following features were quantitated: luminal endothelial protrusions, large empty endothelial vacuoles and basement membrane thickening. […] The number of microvessels displaying any of the noted abnormalities was counted and expressed as percentage of the total number of microvessels examined. Capillaries and arterioles were analyzed separately. Since arterioles were encountered at high enough number for statistical analysis only in the hippocampal vascular layer, quantitative analysis of arteriolar condition was performed for this region of the hippocampus alone.\nas §2"}, "[6]": {"conditions": "hippocampal microvessels, versus control"}},
  "data": [
    {"compound": "Oc1ccc(C=Cc2cc(O)cc(O)c2)cc1", "note": "[Resveratrol, 3,5,4′-trihydroxystilbene]", "values": [
      {"measurement": "food intake, growth and body weight", "setting": "[1]; mouse, in vivo", "value": "did not affect food intake, growth and body weight"},
      {"measurement": "general health (regular visual inspection)", "setting": "[1]; mouse, in vivo", "value": "did not indicate obvious differences in general health"},
      {"measurement": "mortality rate", "setting": "[1]; resveratrol in food from 1 year to 24 months of age, RES versus CON", "value": "no significant differences in mortality rate"},
      {"measurement": "more time spent in the centre of the arena than control animals", "setting": "[2]; 5 minutes open field test, p=0.003", "value": "about 50%"},
      {"measurement": "locomotion (total distance covered) in open field", "setting": "[2]; 5 minutes test, RES versus CON", "value": "the same amount of locomotion"},
      {"measurement": "Y-maze final level of performance on day 3 and retention trial on day 10", "setting": "[3]; RES versus CON", "value": "not different"},
      {"measurement": "Y-maze performance on the second day of the training phase", "setting": "[3]; posthoc test, RES versus CON, p<0.05", "value": "performed better then CON animals"},
      {"measurement": "Y-maze learning (number of correct choices on day 1 to 3)", "setting": "[3]; training phase, age 18-20 months, repeated measures ANOVA p=0.016", "value": "improved learning"},
      {"measurement": "cholinergic cell number in the nucleus basalis", "setting": "[4]", "value": "did not reveal any difference"},
      {"measurement": "cholinergic fibre density in the CA1 and dentate gyrus of the hippocampus", "setting": "[4]", "value": "unchanged"},
      {"measurement": "vascular density in the hippocampus, higher than in control animals", "setting": "[5]; chronic supplementation, p=0.019", "value": "about 15%"},
      {"measurement": "number of microvessels with endothelial vacuoles", "setting": "[5]; hippocampal arterioles, versus control, p=0.05", "value": "significantly reduced"},
      {"measurement": "occurrence of basement membrane thickening", "setting": "[5]; [6]", "value": "not significantly affected"},
      {"measurement": "occurrence of endothelial processes", "setting": "[5]; [6]", "value": "not significantly affected"}
    ]}
  ]
}
